Measurements published in paper PMC5938390, “Tachyplesin Causes Membrane Instability That Kills Multidrug-Resistant Bacteria by Inhibiting the 3-Ketoacyl Carrier Protein Reductase FabG” (Frontiers in Microbiology, 2018).
Positions of bridges follow the written chain, without caps; N, C: chain ends. Residues, ends and D or L forms follow the SMILES beside them.

Key:
K. pneumoniae 5 = experiment: MIC against clinical isolate; format: cell-based, Klebsiella pneumoniae
[1] = tested on: P. aeruginosa strain 1409; experiment: Membrane rupture by propidium iodide staining; format: cell-based, Pseudomonas aeruginosa; conditions: LB medium, 25°C, 1 h, then PI 10 μg/ml 30 min
Method: (§1) These studies were carried out as we previously reported with slight modifications and briefly introduced as follows ([Liu et al., 2017]). […] Cytotoxicity in different cell lines was assessed using the Cell Proliferation Kit II (XTT) (Roche), and cytotoxicity in hemocytes was evaluated by the increase in the absorbance at 540 nm after peptide incubation. Membrane rupture was indicated by the entrance of the DNA-binding fluorescent dye PI into MDR clinical isolates of P. aeruginosa strain 1409. Membrane translocation of N-terminal FITC-conjugated tachyplesin III (purity ≥ 95%, synthesized by GL Biochem Co., Ltd, Shanghai, China) into MDR clinical isolates of Acinetobacter baumannii strain 1408 were detected by confocal laser-scanning microscopy.
After centrifugation at 3000 g for 10 min, cells were resuspended in the same volume of PBS (phosphate-buffered saline, 8 g/L NaCl, 0.2 g/L KCl, 1.44 g/L Na2HPO4, 0.24 g/L KH2PO4, pH 7.4). Then, PI was added to a final concentration of 10 μg/ml. After 30 min of incubation at 25°C, the cells were washed three times with PBS and immediately imaged with a fluorescence microscope.

E. coli 513 = experiment: MIC against clinical isolate; format: cell-based, Escherichia coli
FabG from S. aureus = target: T1, FabG from S. aureus (Staphylococcus aureus, UniProt P0A0H9); experiment: Surface plasmon resonance binding; conditions: tachyplesin III on CM5 chip, FabG 1.25-10 μg/mL injected, HBS-N buffer
T1 construct: His tag (C); made in house; host or cells: E. coli BL21 DE3 (vector pET28a)
T1 sequence (P0A0H9 1-246): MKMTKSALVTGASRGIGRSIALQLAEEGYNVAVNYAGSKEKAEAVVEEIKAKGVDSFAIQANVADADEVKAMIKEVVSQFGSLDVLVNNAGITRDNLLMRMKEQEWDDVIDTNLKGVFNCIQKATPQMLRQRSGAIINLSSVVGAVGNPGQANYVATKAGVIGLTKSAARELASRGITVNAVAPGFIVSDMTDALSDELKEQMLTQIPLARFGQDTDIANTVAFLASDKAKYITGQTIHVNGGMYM
Method: (§2) N-terminal His-tagged FabG from E. coli and C-terminal His-tagged FabG from Staphylococcus aureus were cloned into the NcoI and XhoI cloning sites of the vector pET28a, expressed in BL21 DE3 E. coli and further purified with Ni resin ([Kristan et al., 2009]; [Srinivas and Cronan, 2017]). The binding interaction between tachyplesin III and FabG was analyzed by surface plasmon resonance (SPR) with a Biocore 3000 (Biocore, Piscataway, NJ, United States). Briefly, tachyplesin III was adsorbed onto a CM5 sensor chip using an amine-coupling kit (GE Healthcare, Little Chalfont, United Kingdom) to obtain approximately 1000 resonance units. […] The binding affinity of FabG for tachyplesin III was determined by BIAevaluation 3.0 software (Biacore) with a 1:1 Langmuir binding model for the kinetic calculation ([Wei et al., 2013]).
(§3) FIGURE 7 Tachyplesin III binding with FabG inhibits its enzyme activities in vitro, probably by blocking the active site. Binding interactions between tachyplesin III and FabG from E. coli (A) or from S. aureus (E) were analyzed by surface plasmon resonance (SPR) with a Biocore 3000 (Biocore, Piscataway, NJ, United States). […] Statistical significance was analyzed by one-way ANOVA followed by the Newman–Keuls multiple-comparisons test, ^∗∗p < 0.01, ^∗p < 0.05.

FabG from E. coli = target: T2, FabG from E. coli (Escherichia coli, UniProt P0AEK2); experiment: Surface plasmon resonance binding; conditions: tachyplesin III on CM5 chip, FabG 1.25-10 μg/mL injected, HBS-N buffer
T2 construct: His tag (N); made in house; host or cells: E. coli BL21 DE3 (vector pET28a)
T2 sequence (P0AEK2 1-244): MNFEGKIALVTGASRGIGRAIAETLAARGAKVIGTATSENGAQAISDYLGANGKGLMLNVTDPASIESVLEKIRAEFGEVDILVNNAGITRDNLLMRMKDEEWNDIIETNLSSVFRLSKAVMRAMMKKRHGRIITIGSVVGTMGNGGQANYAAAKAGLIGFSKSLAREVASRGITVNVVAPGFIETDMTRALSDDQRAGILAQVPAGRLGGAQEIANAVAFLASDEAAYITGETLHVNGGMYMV
Method: as §2, §3

[2] = tested on: Escherichia coli strain DH5α; experiment: Stability in sterile deionized water, read out as MIC against DH5α; format: physicochemical; conditions: 37°C, 2 mg/ml, stability judged by MIC against DH5α
Method: as §1
Tachyplesin III (2 mg/ml) was incubated in either sterile deionized water or mouse serum at 37°C for various lengths of time, aliquots were taken, and MICs against DH5α cells were tested. Stability of the MIC indicates the stability of tachyplesin III.

SMILES: CC[C@H](C)[C@@H]1NC(=O)CNC(=O)[C@H](CCCNC(=N)N)NC(=O)[C@H](Cc2ccc(O)cc2)NC(=O)[C@@H]2CSSC[C@H](NC1=O)C(=O)N[C@@H](Cc1ccc(O)cc1)C(=O)N[C@@H](CCCNC(=N)N)C(=O)N[C@@H](CCCCN)C(=O)N[C@H](C(=O)N[C@@H](CCCNC(=N)N)C(N)=O)CSSC[C@H](NC(=O)[C@H](Cc1c[nH]c3ccccc13)NC(=O)[C@@H](N)CCCCN)C(=O)N[C@@H](Cc1ccccc1)C(=O)N[C@@H](CCCNC(=N)N)C(=O)N[C@@H](C(C)C)C(=O)N2 [tachyplesin III] (H-KWCFRVCYRGICYRKCR-NH2; disulfide 3-16, 7-12 (inferred); N-terminus and C-terminus assumed)
- 16 μg/ml tachyplesin III expressed as multiple of MIC (K. pneumoniae 5): 1/2
- membrane integrity (PI fluorescence) ([1]; 1/4× MIC): slight membrane breakage in a small proportion of the treated bacteria
- membrane integrity (PI fluorescence) ([1]; 4× MIC (high concentration)): complete membrane breakage of nearly all of the treated bacteria
- 16 μg/ml tachyplesin III expressed as multiple of MIC (E. coli 513): 4 × MIC
- binding with FabG (SPR) (FabG from S. aureus): could bind
- binding with FabG (SPR) (FabG from E. coli): could bind
- time stable in sterile deionized water [2]: ~48 h
